This is an account of results in ChEMBL document CHEMBL3600379, “Radiosynthesis and preliminary PET evaluation of glycogen synthase kinase 3β (GSK-3β) inhibitors containing [(11)C]methylsulfanyl, [(11)C]methylsulfinyl or [(11)C]methylsulfonyl groups” (Bioorg Med Chem Lett, 2015).

Holding throughout (format): ADME, organism-based
In data set [1] the test system is Brain. Kind of data set: Drug uptake in brain of cold water-induced mouse stress model at 15 to 20 MBq, iv measured at 15 mins by PET image analysis. Particulars: in vivo, 0.25 h; call rule not given here.
Data set [2] deals with Brain. The experiment in a line: Drug uptake in brain of cold water-induced mouse stress model at 15 to 20 MBq, iv measured over 60 mins by PET image analysis relative to normal mouse. Particulars: in vivo, 1 h.
Data set [3] has as its system Brain. The experiment in a line: Drug uptake in brain of normal mouse at 15 to 20 MBq, iv measured at 2 mins by PET image analysis. Particulars: in vivo.
Data set [4] deals with Brain. Kind of data set: Drug uptake in brain of cold water-induced mouse stress model at 15 to 20 MBq, iv measured at 2 mins by PET image analysis. To be noted: in vivo.
Data set [5] has as its system Brain. Kind of data set: Drug uptake in brain of normal mouse at 15 to 20 MBq, iv measured at 15 mins by PET image analysis. To be noted: in vivo, 0.25 h.
The test system of data set [6] is Brain. Kind of data set: Drug uptake in brain of normal mouse at 15 to 20 MBq, iv measured at 30 mins by PET image analysis. To be noted: in vivo, 0.5 h.
Data set [7] deals with Brain. The experiment in a line: Drug uptake in brain of cold water-induced mouse stress model at 15 to 20 MBq, iv measured at 30 mins by PET image analysis. Particulars: in vivo, 0.5 h.

On to `Cc1nnc(-c2ccc3occ(-c4ccc(S([11CH3])(=O)=O)cc4)c3c2)o1`, for which the SUV in the data set on Brain [1] came out at 0.4; with Brain [3], 0.7; in the data set on Brain [4], 1.6; in the data set with Brain [5], 0.2. For the same compound, the “fold change (FC)” value in the data set with Brain [2] is 2. The Drug uptake result in the data set with Brain [6] and in the data set with Brain [7] was “Not Active” throughout.

On to `Cc1nnc(-c2ccc3occ(-c4ccc([S+]([11CH3])[O-])cc4)c3c2)o1` (stereo not given), for which the SUV is recorded as 0.3 with Brain [1], 0.5 with Brain [3], 0.8 in the data set on Brain [4] and 0.3 in the data set on Brain [5]. The Drug uptake result in the data set on Brain [6] and in the data set with Brain [7] was “Not Active” throughout.

Turning to `Cc1nnc(-c2ccc3occ(-c4ccc(S[11CH3])cc4)c3c2)o1`, the SUV in the data set with Brain [1] is recorded as 0.7; with Brain [3], 1; with Brain [4] it was 1.5; with Brain [5], 0.3. In addition, in the data set with Brain [2], the “fold change (FC)” value is 2. For the same compound, the Drug uptake entry in the data set with Brain [6] and in the data set with Brain [7] was “Not Active” in each case.
